Reference: patent US10688084B2 (priority 2016, dated 2020)

System: Wistar rats
Test: Gastric toxicity (ulcerogenic effect), single intragastric administration, 4-point scale
Type: in vivo, rat
Details: for Gastrotoxic effect (averaged), points: 2000 mg/kg single intragastric, 3 hours
Protocol: In the study of gastric toxicity were taken female and male Wistar rats aged 6-7 weeks, with a body mass of 180-220 g. The number of animals in each group was 10.
Three hours after the administration of the suspension of the test substance at a dose of 2000 mg/kg (in 0.5% aqueous solution of Tween-80), the animals were euthanized; their stomachs were removed, dissected along the lesser curvature, and washed in physiological solution to remove the contents.
Evaluation of gastric toxicity was performed on a 4-point scale:
1—single minor injuries (1 or 2 point hemorrhages);
2—multiple injuries (erosion, spot hemorrhages);
3—significant and multiple injuries of the mucosa (erosion, hemorrhage);
4—gross injuries covering the entire surface of the mucosa (massive hemorrhages, erosion, perforations).
According to the results of the assessment, UD50 was determined—the dose of the tested substance causing gastrotoxic (ulcerogenic) effect corresponding to 2 points.
The introduction to rats is carried out in the amount of no more than 5 ml/200 g.
Animals were euthanized by carbon dioxide inhalation method.
At a single introduction of formula I compound at a dose of 2000 mg/kg, the gastrotoxic effect corresponded to an average of 0.6 points in male rats and 0.4 in females (Table 4).

`COc1ccc2cc([C@H](C)C(=O)OCc3cnc(C)c(OC(=O)[C@@H](C)c4ccc5cc(OC)ccc5c4)c3COC(=O)[C@@H](C)c3ccc4cc(OC)ccc4c3)ccc2c1` [Compound of formula I, 3-((S)-2-(6-methoxynaphth-2-yl)propanoiloxy)-4,5-bis (((S)-2-(6-methoxinaphtht-2-yl)propanoiloxy)methyl)-2-methylpyridinium (S)-2-(6-methoxynaphth-2-yl) propanoate] was tested, and the UD50 (females) was over 2000 mg/kg, the “Gastrotoxic effect (averaged), points” value (females) was 0.4 points and the UD50 (males) was over 2000 mg/kg. For the same molecule, the “Gastrotoxic effect (averaged), points” value (males) was 0.6 points, the “Times less gastrotoxic than naproxen (UD50)” value (vs naproxen) was 40 times and the UD50 (without sex distinction) was over 2000 mg/kg. It also gave a UD50 (without sex distinction, listed as compound of formula I) of over 2000 mg/kg.
